Source: US8247441B2, “Chromene compounds, a process for their preparation and pharmaceutical compositions containing them” (Les Laboratoires Servier, priority 2009, dated 2012)

Experiments:
[1] = molecular target: human D3 dopaminergic receptor (Homo sapiens, UniProt P35462); assay: Affinity for human D3 receptors stably expressed in CHO cells, [3H]-spiperone competition; type: binding; conditions: CHO cell membranes, 0.5 nM [3H]-spiperone, 1 hour at 30° C.; read-out: Affinity (pKi) hD3 (converted)
Method: (§1) Determination of Affinity for Human D3, D2S and D2L Receptors Stably Expressed in CHO Cells
(§2) The various cell lines are cultured to confluence and then the cells are detached and are homogenised using a Polytron in a Tris-HCl buffer (50 mM, pH 7.4) containing 5 mM MgCl2. The cell debris is then centrifuged (15 minutes at 4° C.) and the sediment is taken up in an appropriate volume of HEPES buffer (20 mM) containing 150 mM NaCl and is frozen at −80° C. On the day of the experiment, the membranes are taken up in incubation buffer containing 50 mM Tris (pH 7.4), 120 mM NaCl, 5 mM KCl, 2 mM CaCl2 and 5 mM MgCl2. […] The non-specific binding is determined using 10 μM raclopride. At the end of the incubation period, the samples are filtered through Unifilter GF/B type filters pre-treated with PEI (0.1%) and washed several times with Tris-HCl filtration buffer (50 mM, pH 7.4) containing 120 mM NaCl. The radioactivity retained on the filters is counted after addition of scintillation liquid, with the aid of a scintillation counter. […] The results are expressed in terms of pKi=−log Ki.

[2] = molecular target: human D2L dopaminergic receptor (Homo sapiens, UniProt P14416); assay: Affinity for human D2L receptors stably expressed in CHO cells, [3H]-spiperone competition; type: binding; conditions: CHO cell membranes, 0.5 nM [3H]-spiperone, 1 hour at 30° C.; read-out: Affinity (pKi) hD2L (converted)
Method: as §1, §2

[3] = molecular target: human D2S dopaminergic receptor (Homo sapiens, UniProt P14416); assay: Affinity for human D2S receptors stably expressed in CHO cells, [3H]-spiperone competition; type: binding; conditions: CHO cell membranes, 0.5 nM [3H]-spiperone, 1 hour at 30° C.; read-out: Affinity (pKi) hD2S (converted)
Method: as §1, §2

[4] = system: D3/D2 receptor; assay: Inhibition of hypothermia induced by the dopaminergic agonist PD128,907; type: in vivo, rat; conditions: for Δ (° C.) ± S.E.M.s: PD128,907 0.63 mg/kg s.c. at T0, rectal temperature 30 min later vs baseline; for ID50 (Inhibitory Dose50): inhibition of hypothermia induced by PD128,907 0.63 mg/kg s.c.
Method: Inhibition of Induction of Hypothermia Induced by the Dopaminergic Agonist PD128,907
In male rats of the Wistar strain, the baseline (rectal) temperature is measured and then the compound under test or the vehicle is administered by the oral route. Sixty minutes later, PD128,907 (0.63 mg/kg, s.c.), a D3/D2 dopaminergic agonist, is injected. Thirty minutes later, the body temperature is re-determined and the difference (Δ) from the baseline temperature is calculated.

[5] = male Wistar rats, compound 0.04 mg/kg p.o. at T-60 min
[6] = male Wistar rats, compound 0.16 mg/kg p.o. at T-60 min
[7] = male Wistar rats, compound 0.63 mg/kg p.o. at T-60 min
[8] = male Wistar rats, compound 2.5 mg/kg p.o. at T-60 min
[9] = male Wistar rats, compound 10.0 mg/kg p.o. at T-60 min

Chain of human D2L dopaminergic receptor (P14416 whole entry): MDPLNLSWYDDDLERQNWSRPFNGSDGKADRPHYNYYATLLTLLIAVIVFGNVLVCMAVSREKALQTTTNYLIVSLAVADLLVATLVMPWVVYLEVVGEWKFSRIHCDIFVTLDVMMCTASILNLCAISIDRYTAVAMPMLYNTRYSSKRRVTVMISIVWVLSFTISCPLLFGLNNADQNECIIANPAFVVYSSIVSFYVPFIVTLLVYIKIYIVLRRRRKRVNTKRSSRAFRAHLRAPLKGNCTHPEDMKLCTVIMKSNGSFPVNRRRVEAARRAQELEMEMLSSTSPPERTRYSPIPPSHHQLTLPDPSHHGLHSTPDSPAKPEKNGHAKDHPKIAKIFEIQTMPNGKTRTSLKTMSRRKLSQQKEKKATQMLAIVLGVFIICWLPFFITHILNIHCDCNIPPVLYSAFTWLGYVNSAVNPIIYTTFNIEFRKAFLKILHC
Chain of human D3 dopaminergic receptor (P35462 whole entry): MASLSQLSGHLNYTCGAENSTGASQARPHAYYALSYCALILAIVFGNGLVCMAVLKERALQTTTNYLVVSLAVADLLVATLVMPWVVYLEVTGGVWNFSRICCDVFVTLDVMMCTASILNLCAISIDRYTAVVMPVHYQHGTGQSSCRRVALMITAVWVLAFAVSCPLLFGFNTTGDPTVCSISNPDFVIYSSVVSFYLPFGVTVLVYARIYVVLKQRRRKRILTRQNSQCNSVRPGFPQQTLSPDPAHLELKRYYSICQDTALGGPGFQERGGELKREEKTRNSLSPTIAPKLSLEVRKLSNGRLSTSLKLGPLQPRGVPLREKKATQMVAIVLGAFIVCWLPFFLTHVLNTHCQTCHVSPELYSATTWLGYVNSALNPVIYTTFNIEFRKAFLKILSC
Chain of human D2S dopaminergic receptor (P14416 1-414 isoform P14416-2): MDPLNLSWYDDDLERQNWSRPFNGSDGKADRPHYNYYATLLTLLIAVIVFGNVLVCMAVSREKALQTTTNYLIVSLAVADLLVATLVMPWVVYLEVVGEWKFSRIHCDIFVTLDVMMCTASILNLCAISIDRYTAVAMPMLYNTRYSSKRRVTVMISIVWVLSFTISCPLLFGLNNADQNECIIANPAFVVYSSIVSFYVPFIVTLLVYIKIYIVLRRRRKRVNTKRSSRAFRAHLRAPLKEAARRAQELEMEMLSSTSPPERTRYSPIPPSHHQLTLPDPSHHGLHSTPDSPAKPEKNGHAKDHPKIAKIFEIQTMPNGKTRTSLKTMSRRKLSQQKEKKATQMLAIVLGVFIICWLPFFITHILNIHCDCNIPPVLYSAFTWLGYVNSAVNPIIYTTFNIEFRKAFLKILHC

Row | SMILES | Ki [1] [nM] | Ki [2] [nM] | Ki [3] [nM] | Δ (° C.) ± S.E.M.s [4, 5] [°C] | Δ (° C.) ± S.E.M.s [4, 6] [°C] | Δ (° C.) ± S.E.M.s [4, 7] [°C] | Δ (° C.) ± S.E.M.s [4, 8] [°C] | Δ (° C.) ± S.E.M.s [4, 9] | ID50 (Inhibitory Dose50) ([4]; male Wistar rats) | Blocking of PD 128,907-induced hypothermia ([4]; male Wistar rats, oral route) | Effect of PD 128,907 on body temperature ([4]; in the presence of the vehicle)
1 | CC(=O)N[C@H]1CC[C@H](CCN2C[C@H]3COc4ccc(C#N)cc4[C@@H]3C2)CC1.Cl [Example 2, N-(trans-4-{2-[(3aS,9bR)-8-cyano-1,3a,4,9b-tetrahydrochromeno[3,4-c]pyrrol-2(3H)-yl]ethyl}cyclohexyl)acetamide hydrochloride] | 2 | 100 | 117 | −1.73 ± 0.26 | −1.33 ± 0.11 | −0.97 ± 0.28 | −0.4 ± 0.13 | +0.1 ± 0.33 °C | 1.33 mg/kg, p.o. |  | 
2 | Cl.N#Cc1ccc2c(c1)[C@@H]1CN(CC[C@H]3CC[C@H](NC(=O)C4CCC4)CC3)C[C@H]1CO2 [Example 3, N-(trans-4-{2-[(3aS,9bR)-8-cyano-1,3a,4,9b-tetrahydrochromeno[3,4-c]pyrrol-2(3H)-yl]ethyl}cyclohexyl)cyclobutanecarboxamide hydrochloride] | 1.86 | 50.1 | 56.2 | −1.65 ± 0.09 | −1.62 ± 0.07 | −0.83 ± 0.20 | −0.33 ± 0.16 | +0.35 ± 0.18 °C | 0.64 mg/kg, p.o. | blocked in dose-dependent manner | 
3 | CCCN1CCO[C@@H]2c3cc(O)ccc3OC[C@H]21 [PD128,907, reference compound] |  |  |  |  |  |  |  |  |  |  | brings about hypothermia
